Target: T1, AT1 Q257A receptor (Rattus norvegicus, UniProt P25095, Q257A)
T1 construct: expressed in transfected cells; host or cells: COS7
T1 sequence (P25095 1-359 Q257A): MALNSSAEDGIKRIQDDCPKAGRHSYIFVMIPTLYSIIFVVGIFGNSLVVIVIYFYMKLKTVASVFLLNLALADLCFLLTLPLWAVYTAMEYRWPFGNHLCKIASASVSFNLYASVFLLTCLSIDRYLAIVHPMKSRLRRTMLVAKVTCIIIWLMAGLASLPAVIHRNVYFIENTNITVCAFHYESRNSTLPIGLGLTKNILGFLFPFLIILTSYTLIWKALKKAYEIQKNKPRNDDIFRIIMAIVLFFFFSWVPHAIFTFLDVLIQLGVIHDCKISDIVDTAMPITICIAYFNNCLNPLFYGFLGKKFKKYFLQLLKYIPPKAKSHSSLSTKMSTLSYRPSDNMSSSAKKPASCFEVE
Test: Immunoblotting of ERK 1/2 activation in COS7 cells overexpressing AT1-Q257A receptor
Assay type: cell-based
Conditions: 1 µM ligands or 0.1 µM Ang II, 10 min, n = 5, vs. (-)
Method: The synthetic rat AT1 receptor gene, which was cloned in the shuttle expression vector pMT-2, was used for expression and mutagenesis, as described previously. […] In the experiments, cells were grown without a cell-growth supplement. To express the AT1 receptor protein, 10 µg of purified plasmid DNA per 10^7 cells was used in the transfection. Wild-type and mutated AT1 receptors were transiently transfected into cells using Lipofectamine 2000 liposomal reagent (Roche Applied Science, Penzberg, Germany). Cells were plated and grown and were 70–90% confluent at the time of transfection. We incubated plasmid DNA (10 µg)–lipid (10 µL) complexes for 5 min at room temperature and added and incubated the complexes with cells for 24 h. We then analyzed the parameters in transfected cells. […] Transfected cells that had been cultured for 48–72 h were harvested. […]
In in vitro studies, ERK 1/2 activation by 1 µM ligands or 0.1 µM Ang II incubated for 10 min was measured using COS7 cells that overexpressed AT1 wild-type and mutant receptors. ERK activity was measured in cells maintained for 18 h in DMEM containing 0.1% serum. […] We homogenized the cells in lysis buffer plus protease inhibitors and determined the protein concentration using the bicinchoninic acid method. […] The signal was independently quantified by digital image analysis (ImageJ, National Institutes of Health, Bethesda, MD, USA).

CCCc1nc(C(C)(C)O)c(C(=O)O)n1Cc1ccc(-c2ccccc2-c2nnn[nH]2)cc1 [Olmesartan, olmesartan]
ERK1/2 activation: did not change ERK1/2 activation

Reference: paper PMC10216478, “Development of a Non-Peptide Angiotensin II Type 1 Receptor Ligand by Structural Modification of Olmesartan as a Biased Agonist” (Biomedicines, 2023)
